Assays:
[1] = system: influenza strains B/Malaysia/2506/2004 or B/Victoria/504/2000; assay: Influenza B assay (fluorescence-based influenza neuraminidase assay); type: cell-based; settings: Influenza B virus, A549, 20 h; read-out: Potency (EC50)
[2] = target: Full length EN PA (influenza PA endonuclease) (Influenza A virus, UniProt P15659); assay: EN PA FRET inhibition assay; type: biochemical; settings: FRET probe, mean of a minimum of two independent experiments, read-out: Potency (IC50 class, Table 3)
[3] = system: Influenza strain A549_A/WSN/33 (H1N1); assay: Influenza antiviral assay (neuraminidase fluorescence readout); type: cell-based, Influenza virus; settings: Influenza A virus, read-out: % Inhibition (EC50 class, Table 2)
[4] = system: Influenza strain A/Port Chalmers/1/73 (H3N2); assay: Combination studies (checker-board, MacSynergy II); type: cell-based, Influenza virus; settings: MDCK cells, three days
[5] = Compound 2 = Amantadine (M2 Channel-Inhibitor)
[6] = Compound 2 = Favipiravir (T-705) (Polymerase Inhibitor)
[7] = Compound 2 = Oseltamivir (Neuraminidase-Inhibitor)
[8] = Compound 2 = Peramivir (Neuraminidase-Inhibitor)
[9] = Compound 2 = Ribavirin (Polymerase Inhibitor)
[10] = Compound 2 = Rimantadine (M2 Channel-Inhibitor)
[11] = Compound 2 = Zanamivir (Neuraminidase-Inhibitor)
[12] = Compound 2 = 21-A (PA Inhibitor)
[13] = Compound 2 = drawing 296 (Polymerase Inhibitor)

For CCN1C[C@H](C(c2cccc(F)c2)c2cccc(F)c2)n2ncc(=O)c(O)c2C1=O [Compound 21-A], the EC50 [1] was < 20 µM, the IC50 [2] was < 0.25 µM and the EC50 [3] was < 20 µM.

In the case of CC(C)C(=O)Oc1c2n(ncc1=O)[C@@H](C1c3cccc(F)c3CCc3c(F)cccc31)CN(C(C)C)C2=O [Compound 114-A], the IC50 [2] is reported as < 0.25 µM, the EC50 [3] is reported as < 20 µM and the “Synergy Volume” value [4, 5] is reported as 86 μM^2%. The “Synergy Volume” value [4, 6] was 132 μM^2%, the “Synergy Volume” value [4, 7] was 205 μM^2% and the “Synergy Volume” value [4, 8] was 100 μM^2%. The “Synergy Volume” value [4, 9] was 55 μM^2%, the “Observed Result” value [4, 10] was “synergistic (volumes in the 25-100 range indicate synergistic behavior)” and the “Synergy Volume” value [4, 10] was 45 μM^2%. The “Synergy Volume” value [4, 11] was 127 μM^2%.

For CC(C)N1C[C@H](C(c2cccc(Cl)c2)c2cccc(Cl)c2)n2ncc(=O)c(O)c2C1=O [Compound 68-A], the EC50 [1] was < 20 µM, the IC50 [2] was < 0.25 µM and the EC50 [3] was < 20 µM.

For COCCN1C[C@H](C(c2cccc(F)c2)c2cccc(F)c2)n2ncc(=O)c(O)c2C1=O [Compound 76-A], the EC50 [1] was < 20 µM, the IC50 [2] was < 0.25 µM and the EC50 [3] was < 20 µM.

For CC(C)N1C[C@H](C(c2ccccc2)c2ccccc2)n2ncc(=O)c(O)c2C1=O [Compound 6-A], the EC50 [1] was < 20 µM, the IC50 [2] was < 0.25 µM and the EC50 [3] was < 20 µM. For the same molecule, the “Observed Result” value [4, 12] was “additive (volumes in the −25-25 range indicate additive behavior)”, the “Synergy Volume” value [4, 12] was 4.1 μM^2% and the “Observed Result” value [4, 5] was “additive (volumes in the −25-25 range indicate additive behavior)”. The “Synergy Volume” value [4, 5] was 22.5 μM^2%, the “Synergy Volume” value ([4]; Compound 2 = Consensus Interferon alpha (Immuno-modulator)) was 70 μM^2% and the “Synergy Volume” value [4, 6] was 185 μM^2%. The “Synergy Volume” value ([4]; Compound 2 = Laninamivir (Neuraminidase-Inhibitor)) was 276 μM^2%, the “Synergy Volume” value [4, 7] was 233 μM^2% and the “Synergy Volume” value [4, 8] was 308 μM^2%. For the same molecule, the “Synergy Volume” value [4, 9] was 109 μM^2%, the “Observed Result” value [4, 10] was “additive (volumes in the −25-25 range indicate additive behavior)” and the “Synergy Volume” value [4, 10] was 4.6 μM^2%. The “Synergy Volume” value [4, 11] was 217 μM^2%, the “Observed Result” value [4, 13] was “strongly synergistic” and the “Synergy Volume” value [4, 13] was 440 μM^2%.

For CC(C)N1C[C@H](C(c2cccc(F)c2)c2cccc(F)c2)n2ncc(=O)c(O)c2C1=O [Compound 41-A], the EC50 [1] was < 20 µM, the IC50 [2] was < 0.25 µM and the EC50 [3] was < 20 µM.

CCN1C[C@H](C(c2cccc(Cl)c2)c2cccc(Cl)c2)n2ncc(=O)c(O)c2C1=O [Compound 39-A] was tested, and the EC50 [1] was < 20 µM, the IC50 [2] was < 0.25 µM and the EC50 [3] was < 20 µM.

CN1C[C@H](C2c3ccccc3CCc3ccccc32)n2ncc(=O)c(O)c2C1=O [Compound 7-A] was tested, and the EC50 [1] was < 20 µM, the IC50 [2] was < 0.25 µM and the EC50 [3] was < 20 µM.

— US10980805B2, “Aza-pyridone compounds and uses thereof” (Janssen BioPharma, Inc., priority 2013, dated 2021)
